These are literature values, as cited in patent US8293711B2, “Use of natriuretic peptides for treating angioedema syndromes” (Pharis Biotech GmbH, priority 2007, dated 2012).

Series [1] concerns HEK-293. The note with it: human embryonic kidney cell line HEK-293; via activation of a cGMP-dependent pathway.
Series [2] concerns bradykinin-induced edema in the hamster cheek pouch. The note with it: unspecific tyrosine kinase inhibitors.
The test system of series [3] is acute renal failure models.

For the molecule `CC[C@H](C)[C@@H]1NC(=O)[C@H](CCCNC(=N)N)NC(=O)[C@H](CC(=O)O)NC(=O)[C@H](CCSC)NC(=O)[C@H](CCCNC(=N)N)NC(=O)CNC(=O)CNC(=O)[C@H](Cc2ccccc2)NC(=O)[C@@H](NC(=O)[C@H](CO)NC(=O)[C@H](CO)NC(=O)[C@H](CCCNC(=N)N)NC(=O)[C@H](CCCNC(=N)N)NC(=O)[C@H](CC(C)C)NC(=O)[C@@H](N)CO)CSSC[C@@H](C(=O)N[C@@H](CC(N)=O)C(=O)N[C@@H](CO)C(=O)N[C@@H](Cc2ccccc2)C(=O)N[C@@H](CCCNC(=N)N)C(=O)N[C@@H](Cc2ccc(O)cc2)C(=O)O)NC(=O)CNC(=O)[C@H](CC(C)C)NC(=O)CNC(=O)[C@H](CO)NC(=O)[C@H](CCC(N)=O)NC(=O)[C@H](C)NC(=O)CNC1=O` [ANP, atrial natriuretic peptide], the tyrosine phosphorylation entry in series [1] is reported as “able to counteract tyrosine phosphorylation”.
Turning to `O=c1c(-c2ccc(O)cc2)coc2cc(O)cc(O)c12` [genistein], the “bradykinin-mediated effect (edema)” value in series [2] is “attenuated”.
On to `N#CC(C#N)=Cc1cc(O)c(O)c(O)c1` [tyrphostin 25], for which the “bradykinin-mediated effect (edema)” value in series [2] is on record as “attenuated”.
urodilatin: the tyrosine phosphorylation result in series [1] is recorded as “able to counteract tyrosine phosphorylation”. In addition, the “diuretic and natriuretic effects” value in series [3] was “strong diuretic and natriuretic effects”.
